This note sets out measurements from patent US6384187B1, “Antiproliferative activity of microsclerodermins” (Harbor Branch Oceanographic Institution, Inc., priority 1999, dated 2002).

This assay relates to A549 human lung adenocarcinoma cells. Description: Immunofluorescent detection of effects on the microtubule matrix (anti-alpha-tubulin). It counts as cell-based. How it is done:
Microsclerodermin compounds were evaluated as to their effects on the microtubule network of A549 human lung adenocarcinoma cells using anti-alpha-tubulin monoclonal antibodies. […] Tests were conducted to determine if the microsclerodermin compounds acted upon the cellular microtubule network in a similar fashion.
On day 1, 7.0×10^4 adherent A549 cells were cultured in TCM overnight at 37° C. in 5% CO2 on 22 mm2 coverslipsin 6-well microtiter plates. On day 2, the TCM was removed and replaced with various concentrations of the microsclerodermin compounds, or discodermolide,in TCM or TCM without drug (control) and incubated for 24 hours at 37° C. in 5% CO2. On day 3, the TCM was removed and the adhered cells were fixed in 3.7% formaldehyde solution in Dulbecco's phosphate-buffered saline (D-PBS) for 10 minutes at room temperature. The cells were then permeabilized in a 2% Triton X-100 solution in D-PBS, 2 ml per well, for 5 minutes at room temperature and washed twice in D-PBS prior to staining.
To each well containing cells attached to coverslips a 2 ml volume of mouse monoclonal anti-alpha-tubulin(Cat#T-5168, Sigma Immuno Chemicals) diluted 1:1000 in D-PBS was added and the cells incubated at room temperature for 45 minutes. The coverslips were rinsed twice with D-PBS. A 2 ml volume of goat-anti-mouse-IgG-FITC conjugate (Cat#T-5262, Sigma Immuno Chemicals) diluted at 1:1000 in D-PBS was added and the cells incubated at room temperature for 45 minutes. Coverslips were rinsed twice in D-PBS and incubated for 30 minutes at 37° C. with 1 ml/well of propidium iodide ([…]) and ribonuclease A ([…]) in D-PBS. The cover slips were rinsed three times with sterile distilled water, mounted on slides, and observed under the microscope using epifluorescence illumination for the presence of abnormal aster and microtubule bundle formation.

Setting [1] is: treated cells, concentration not given, reference agents.

For `C=C/C=C\[C@H](C)[C@H](OC(N)=O)[C@@H](C)[C@H](O)[C@@H](C)C/C(C)=C\[C@H](C)[C@@H](O)[C@@H](C)/C=C\[C@@H](O)C[C@@H]1OC(=O)[C@H](C)[C@@H](O)[C@H]1C` [discodermolide, reference compound], the “abnormal aster and microtubule bundle formation” value under setting [1] is reported as “abnormal formation of multiple centriolar-radiating microtubules with extensive clusters of associated microtubular “bundles””.

On to `CC(=O)O[C@H]1C(=O)[C@@]2(C)[C@H]([C@H](OC(=O)c3ccccc3)[C@]3(O)C[C@H](OC(=O)[C@H](O)[C@@H](NC(=O)c4ccccc4)c4ccccc4)C(C)=C1C3(C)C)[C@]1(OC(C)=O)CO[C@@H]1C[C@@H]2O` [paclitaxel, reference compound], for which the “abnormal aster and microtubule bundle formation” value under setting [1] is listed as “abnormal formation of multiple centriolar-radiating microtubules with extensive clusters of associated microtubular “bundles””.

Take microsclerodermin F: under “A549 cells, 5 μg/ml, 24 hours”, the “abnormal aster and microtubule bundle formation” value is “nor was there any microtubule bundling or cells with multiple asters”; the “cell number compared with control cultures” value is “fewer cells than in control cultures”; the cells undergoing mitosis entry is listed as “No cells in the culture were found to be undergoing mitosis”. The “alpha-tubulin antibody staining of the microtubule matrix” value (A549 cells, 5 μg/ml, 24 hours, seen in some cells) is given as “completely disassembled structure with a near uniform distribution throughout the cytoplasm”.
